In this series the test system is human healthy skin. The note with it: in vivo.

Procedure: The study was designed as a single center, randomized, double-blind (investigator-masked) study with intraindividual comparison of treatments to evaluate the cutaneous tolerance of repeated applications of the medical skin care formulations applied under occlusion during 21 days and started with 25 healthy volunteers of either sex between 18 and 65 years old meeting specific inclusion/exclusion criteria.
The volunteers were subjected to an occlusive application of 50 μl of each test formulation on designated test fields on their mid back for 21 consecutive days. The occlusive dressings were removed after 23 hours, and the irritation was evaluated one hour later using a 6-point-score (irritation score):
A Cumulative Irritancy Index (C.I.I.) was calculated for each test preparation for each subject as follows:
C.I.I.=Sum of irritation scores in one individual/number of readings An ‘adjusted C.I.I.’ (C.I.I.*) was calculated by subtracting scores caused by sensitization reactions.
Furthermore, a Mean Cumulative Irritation Index (M.C.I.I.) was calculated for each product by averaging individual C.I.I.s across subjects as follows:
M.C.I.I.=Sum of irritation scores in all individuals/number of readings An ‘adjusted M.C.I.I.’ (M.C.I.I.*) was calculated by subtracting scores caused by sensitization reactions.

Turning to white soft paraffin, the “mean scores during the course of the study” value is given as “no remarkable differences or tendencies”.

The values above are taken from patent US20040116531A1, “Water-free skin care formulations comprising micronized urea and method of manufacturing the same” (priority 2000, published 2004).
